# Data from patent publication US4539319A (priority 1982, dated 1985).
# Values joined by “and” are separate entries in the source; they are usually repeats but may differ in a detail not shown here. Identical values can stand only once. Counter-ions that a name gives are not always drawn. Like-named read-outs stand apart in the source and are kept apart here.
# How the values were obtained:
# [1] = system: ST from E coli P16; set-up: species or system mice; settings: mouse, in vivo
# [2] = system: ST from E coli P155; set-up: species or system mice; settings: mouse, in vivo
# [3] = system: ST from E coli 431; set-up: species or system mice; settings: mouse, in vivo
# [4] = system: 8 Bromo cyclic GMP; set-up: species or system mice; settings: mouse, in vivo
# [5] = system: enterotoxin induced secretion; assay: animal or person; type: in vivo, mice; settings: Mus musculus, po
# [6] = Determination of Therapeutic Ratios: LD50 in suckling 8 day old mice; settings: mouse, in vivo
# Procedure: LD50 determinations were made by dosing groups of suckling 8 day old mice with appropriate concentrations orally. Deaths were noted over a 7 day period and LD50s calculated using a probit regression program. ED50 determinations were carried out by dosing groups of 6-8 day old mice with appropriate concentrations orally. The percentage fluid inhibition was determined as above and ED50s calculated using a log/linear regression analysis and the formula given in the British Pharmacopoeia.
# For computation of T.R.'s the standard errors of ED50 values were corrected to normalise the errors and the T.R.'s expressed as the ratio (LD50 /ED50) and standard deviation range (Table 3).
# [7] = system: E coli B44; assay: Protection of Neonatal Mice from Lethal Enteropathogenic E coli Infection; type: in vivo, E coli B44 infection in 4 day old mice; settings: 10 mg/kg b.i.d.; for % mortality in mice dosed with compound: n = 60; for % Reduction in mortality: versus placebo
# Procedure: 4 day old mice were orally dosed with 50 μl of phosphate buffered saline containing 1×10^5 organisms/ml of E coli B44. The mice were then dosed b.i.d. with either placebo or drug for four days commencing 16 hours after infection. The animals were left with their mothers throughout the experiment and a daily record of deaths was made. The experiment was terminated when no mortality was seen over a 24 hour period. (Usually 7-10 days after infection). The mortality in the drug group was then compared with the mortality in the placebo group using the following formula:
# % Reduction in mortality=[(MP -MD)/MP]× 100
# MP =mortality in group having placebo
# MD =mortality in group receiving drug
# Statistical analysis was performed using 2×2 contingency tables (single tailed `p`).
# [8] = system: enterotoxin (culture filtrate) from enteropathogenic E coli strain P16; set-up: species or system piglets; settings: in vivo; hydrochloride
compound,measurement,setting,value
"4-Methoxy-N,N-di-amylamine-5,6,7,8-tetrahydro-1-naphthamidine, hydrochloride [Example 13]",% inhibition,[1]; hydrochloride,38% and 33%
"CCCN(CCC)C(=N)c1ccc(OC)c2c1CCCC2 [Example 9, 4-methoxy-N',N'-di-n-propyl-5,6,7,8-tetrahydro-1-naphthamidine, hydrochloride]",% inhibition,[1]; hydrochloride,43% and 29%
"COc1ccc(C(=N)N2CCCCC2)c2c1CCCC2.Cl [Example 10, 1-[Imino(4-methoxy-5,6,7,8-tetrahydro-1-naphthyl)-methyl]piperidine, hydrochloride]",% inhibition,[1]; hydrochloride,33% and 35%
"CCCCN(CCCC)C(=N)c1ccc(OC)c2c1CCCC2 [Example 11, N',N'-Di-n-butyl-4-methoxy-5,6,7,8-tetrahydro-1-naphthamidine, hydrochloride]",% inhibition (Table 2),[1],59%
same,% inhibition,[1]; hydrochloride,59% and 32%
same,% inhibition,[2],31%
same,% inhibition,[3],47%
same,% inhibition,[4],42%
same,ED50,[5],16 mg/kg
same,selectivity ratio,"[6]; po, therapeutic ratio (T.R.), standard errors of ED50 corrected, range (3.9-8.1)",5.6
same,LD50 at 168 h,"[6]; oral, 8 day old mice, deaths over 7 days, range (83-91)",87 mg/kg
same,% mortality in mice dosed with compound,"[7]; day 2 post infection, control 31",25%
same,% Reduction in mortality,[7]; day 2 post infection,18%
same,% mortality in mice dosed with compound,"[7]; day 3 post infection, control 68, *P < 0.05",47%
same,% Reduction in mortality,[7]; day 3 post infection,31%
same,% mortality in mice dosed with compound,"[7]; day 4 post infection, control 79, **P < 0.01",53%
same,% Reduction in mortality,[7]; day 4 post infection,33%
same,% mortality in mice dosed with compound,"[7]; day 5 post infection, control 84, ***P < 0.001",57%
same,% Reduction in mortality,[7]; day 5 post infection,32%
same,% mortality in mice dosed with compound,"[7]; day 6 post infection, control 84, **P < 0.01",58%
same,% Reduction in mortality,[7]; day 6 post infection,30%
same,% mortality in mice dosed with compound,"[7]; day 7 post infection, control 84, **P < 0.01",58%
same,% Reduction in mortality,[7]; day 7 post infection,30%
same,Mean scour score during 7 hr observation period ± SEM,[8],2.1 ± 0.3 and 1.2 ± 0.2
"CCCCN(CCCC)C(=N)c1ccc(OCc2ccccc2)c2c1CCCC2 [Example 12, N',N'-Di-n-butyl-4-benzyloxy-5,6,7,8-tetrahydro-1-naphthamidine, hydrochloride]",% inhibition,[1]; hydrochloride,70% and 52%
"CCCCN(CCCC)C(=N)c1ccc(OC(C)C)c2c1CCCC2 [Example 14, N',N'-di-n-butyl-4-isopropyloxy-5,6,7,8-tetrahydro-1-naphthamidine, hydrochloride]",% inhibition,[1],52%
"CN(C)C(=N)c1ccc(OCc2ccccc2)c2c1CCCC2 [Example 15, 4-Benzyloxy-N',N'-dimethyl-5,6,7,8-tetrahydro-1-naphthamidine, hydrochloride]",% inhibition,[1]; hydrochloride,39% and 22%
"CCCCN(CCCC)C(=N)c1ccc(O)c2c1CCCC2 [Example 16, N',N'-di-n-butyl-4-hydroxy-5,6,7,8-tetrahydro-1-naphthamidine hydrochloride]",% inhibition,[1]; hydrochloride,58% and 41%
